From US9834579B2, “Crystalline forms of s-acetyl glutathione, their preparations and uses in pharmaceutical and nutraceutical formulations” (Gnosis S.p.A., priority 2013, dated 2017)

Tests used:
[1] = accelerated stability test of solid forms at 50° C. for 6 months (European Pharmacopoeia); type: physicochemical; conditions: for GSH / GSSG / SAG / Unknown impurities (single) / Unknown impurities (total): % area
Protocol: The stability of the various solid forms was tested as described in the European Pharmacopoeia (EP), by conducting accelerated stability tests at 50° C. for 6 months.

[2] = dissolution rate in water; type: physicochemical; conditions: comparison of solid forms
[3] = powder density / apparent density; type: physicochemical; conditions: for Apparent density: product of the example after drying
[4] = flowability of the powders; type: physicochemical; conditions: comparison of crystalline forms
[5] = heat and mechanical stress, conversion of one polymorph to the other; type: physicochemical; conditions: heat and mechanical stresses
[6] = oral, seven healthy volunteers, doses of up to 3 g per dose; cited from earlier work
[7] = compared with GSH; cited from earlier work
[8] = test system: cell levels of GSH impoverished by viral infections; conditions: cells impoverished by viral infections, compared with GSH; cited from earlier work
[9] = test system: fibroblasts originating from individuals suffering from a genetic glutathione synthetase deficiency; conditions: addition to fibroblast cultures; cited from earlier work
[10] = test system: human tumour cell lines; conditions: some human tumour cell lines in vitro; cited from earlier work

With `CC(=O)SC[C@H](NC(=O)CC[C@H](N)C(=O)O)C(=O)NCC(=O)O` [Amorphous, S-acetyl glutathione] the “SAG - assay value” ([1]; 0 months) was 96.5%, the GSH ([1]; 0 months) was 1.0% and the GSSG ([1]; 0 months) was 2.5%. The SAG ([1]; 0 months) was 95.1%, the “Unknown impurities (single)” value ([1]; 0 months) was 0.4% and the “Unknown impurities (total)” value ([1]; 0 months) was 1.4%. The “SAG - assay value” ([1]; 1.5 months) was 94.9%, the GSH ([1]; 1.5 months) was 1.6% and the GSSG ([1]; 1.5 months) was 2.5%. The SAG ([1]; 1.5 months) was 94.6%, the “Unknown impurities (single)” value ([1]; 1.5 months) was 0.9% and the “Unknown impurities (total)” value ([1]; 1.5 months) was 1.9%. The “SAG - assay value” ([1]; 3 months) was 92.4%, the GSH ([1]; 3 months) was 2.4% and the GSSG ([1]; 3 months) was 2.8%. The SAG ([1]; 3 months) was 91.3%, the “Unknown impurities (single)” value ([1]; 3 months) was 1.2% and the “Unknown impurities (total)” value ([1]; 3 months) was 2.3%. For the same compound, the “SAG - assay value” ([1]; 4.5 months) was 91.5%, the GSH ([1]; 4.5 months) was 2.8% and the GSSG ([1]; 4.5 months) was 2.9%. For the same compound, the SAG ([1]; 4.5 months) was 90.4%, the “Unknown impurities (single)” value ([1]; 4.5 months) was 1.3% and the “Unknown impurities (total)” value ([1]; 4.5 months) was 2.7%. For the same compound, the “SAG - assay value” ([1]; 6 months) was 89.9%, the GSH ([1]; 6 months) was 2.5% and the GSSG ([1]; 6 months) was 3.9%. The SAG ([1]; 6 months) was 88.6%, the “Unknown impurities (single)” value ([1]; 6 months) was 1.5% and the “Unknown impurities (total)” value ([1]; 6 months) was 3.5%. The “stability of the solid form (comparison)” value ([1]; 6 months, data of Table 3) was “much less stable than the crystalline forms” and the dissolution rate ([2]; listed as amorphous form) was “dissolves more rapidly”.
Compound `CC(=O)SC[C@H](NC(=O)CC[C@H](N)C(=O)O)C(=O)NCC(=O)O` [Example 3, S-acetyl glutathione] has an Apparent density [3] of 0.35 g/mL.
With `CC(=O)SC[C@H](NC(=O)CC[C@H](N)C(=O)O)C(=O)NCC(=O)O` [Form A, S-acetyl glutathione] the “SAG - assay value” ([1]; 0 months) was 98.6%, the GSH ([1]; 0 months) was 0.1% and the GSSG ([1]; 0 months) was 2.2%. The SAG ([1]; 0 months) was 96.3%, the “Unknown impurities (single)” value ([1]; 0 months) was 0.4% and the “Unknown impurities (total)” value ([1]; 0 months) was 1.0%. For the same compound, the “SAG - assay value” ([1]; 1.5 months) was 98.3%, the GSH ([1]; 1.5 months) was 0.1% and the GSSG ([1]; 1.5 months) was 2.2%. The SAG ([1]; 1.5 months) was 95.5%, the “Unknown impurities (single)” value ([1]; 1.5 months) was 0.5% and the “Unknown impurities (total)” value ([1]; 1.5 months) was 1.7%. The “SAG - assay value” ([1]; 3 months) was 97.8%, the GSH ([1]; 3 months) was 0.2% and the GSSG ([1]; 3 months) was 2.3%. For the same compound, the SAG ([1]; 3 months) was 95.1%, the “Unknown impurities (single)” value ([1]; 3 months) was 0.5% and the “Unknown impurities (total)” value ([1]; 3 months) was 1.9%. For the same compound, the “SAG - assay value” ([1]; 4.5 months) was 97.6%, the GSH ([1]; 4.5 months) was 0.2% and the GSSG ([1]; 4.5 months) was 2.4%. The SAG ([1]; 4.5 months) was 94.7%, the “Unknown impurities (single)” value ([1]; 4.5 months) was 0.7% and the “Unknown impurities (total)” value ([1]; 4.5 months) was 2.0%. For the same compound, the “SAG - assay value” ([1]; 6 months) was 97.4%, the GSH ([1]; 6 months) was 0.3% and the GSSG ([1]; 6 months) was 2.4%. For the same compound, the SAG ([1]; 6 months) was 94.4%, the “Unknown impurities (single)” value ([1]; 6 months) was 0.9% and the “Unknown impurities (total)” value ([1]; 6 months) was 2.0%. The powder density [3] was 0.2 to 0.25 g/mL, the Apparent density ([3]; listed as Example 1) was 0.15 to 0.25 g/mL and the “flowability of the powder” value [4] was “better flowability”. The “conversion of one polymorph to the other” value [5] was “not found”.
In the case of `CC(=O)SC[C@H](NC(=O)CC[C@H](N)C(=O)O)C(=O)NCC(=O)O` [Form B, S-acetyl glutathione], the “SAG - assay value” ([1]; 0 months) is reported as 99.3%, the GSH ([1]; 0 months) is reported as 0.2% and the GSSG ([1]; 0 months) is reported as 1.1%. For the same compound, the SAG ([1]; 0 months) was 97.7%, the “Unknown impurities (single)” value ([1]; 0 months) was 0.2% and the “Unknown impurities (total)” value ([1]; 0 months) was 0.8%. The “SAG - assay value” ([1]; 1.5 months) was 99.1%, the GSH ([1]; 1.5 months) was 0.3% and the GSSG ([1]; 1.5 months) was 1.2%. The SAG ([1]; 1.5 months) was 97.1%, the “Unknown impurities (single)” value ([1]; 1.5 months) was 0.5% and the “Unknown impurities (total)” value ([1]; 1.5 months) was 0.9%. The “SAG - assay value” ([1]; 3 months) was 98.7%, the GSH ([1]; 3 months) was 0.7% and the GSSG ([1]; 3 months) was 0.8%. The SAG ([1]; 3 months) was 96.7%, the “Unknown impurities (single)” value ([1]; 3 months) was 0.7% and the “Unknown impurities (total)” value ([1]; 3 months) was 1.1%. For the same compound, the “SAG - assay value” ([1]; 4.5 months) was 98.3%, the GSH ([1]; 4.5 months) was 0.9% and the GSSG ([1]; 4.5 months) was 1.1%. For the same compound, the SAG ([1]; 4.5 months) was 96.0%, the “Unknown impurities (single)” value ([1]; 4.5 months) was 0.7% and the “Unknown impurities (total)” value ([1]; 4.5 months) was 1.3%. The “SAG - assay value” ([1]; 6 months) was 98.1%, the GSH ([1]; 6 months) was 1.0% and the GSSG ([1]; 6 months) was 0.9%. For the same compound, the SAG ([1]; 6 months) was 95.7%, the “Unknown impurities (single)” value ([1]; 6 months) was 0.8% and the “Unknown impurities (total)” value ([1]; 6 months) was 2.0%. For the same compound, the powder density [3] was 0.4 g/mL, the Apparent density ([3]; listed as Example 2) was 0.25 to 0.40 g/mL and the dissolution rate [2] was “most rapid dissolution rate”. The “conversion of one polymorph to the other” value [5] was “not found”.
For `N[C@@H](CCC(=O)N[C@@H](CS)C(=O)NCC(=O)O)C(=O)O` [GSH, γ-L-glutamyl-L-cysteinylglycine], the “increase in the blood levels of glutathione, cysteine and glutamate” value [6] is given as “no significant increases”.
In the case of `CC(=O)SC[C@H](NC(=O)CC[C@H](N)C(=O)O)C(=O)NCC(=O)O` [SAG, S-acetyl glutathione], the “stability in the plasma” value [7] is given as “more stable in the plasma”, the “replenishing the cell levels of GSH” value [8] is given as “more effective than GSH” and the “replenishment of the intracellular level of GSH” value [9] is given as “able to replenish the intracellular level of GSH effectively”. The “induction of apoptosis (non-GSH-dependent activity)” value [10] was “induces apoptosis”.
